One test concerns the target Human mTOR (FLAG-TOR) (Homo sapiens, UniProt P42345). The test can be described thus: mTOR kinase assay (DELFIA format, purified enzyme). In kind it is biochemical. The note with it: read-out: IC50 mTOR.
For the next test, the target named is PI3K-α (Homo sapiens, UniProt P42336). The test can be described thus: PI3K-alpha fluorescence polarization assay. Particulars: read-out: IC50 PI3Kα. A general note: Polarisation of emitted light reports the rotation of a fluorescent probe.
The subject of test [1] is human breast MDA-MB-361 tumor cell line. The test can be described thus: In vitro cell culture growth assay (MTS), MDA-MB-361. The test is classed as cell-based. The note with it: Homo sapiens, MTS cell growth assay, three days after drug treatment, MDA-MB-361 cells, read-out: IC50 MDA-MB-361.
Test [2] deals with human prostate PC3-mm2 tumor cell line. The experiment in a line: In vitro cell culture growth assay (MTS), PC3-mm2. The test is classed as cell-based. The note with it: Homo sapiens, PC3MM2, 72 h, MTS cell growth assay, three days after drug treatment, PC3-mm2 cells; read-out: IC50 PC3-mm2. A general note: Formazan colour is commonly taken as a measure of viable cells.
The target in another test is PI3K-γ (Homo sapiens, UniProt P48736). The experiment in a line: PI3K-gamma fluorescence polarization assay. Particulars: read-out: IC50 PI3Kγ.

Read-outs that look alike come from different tables or passages of the source.

Chain of Human mTOR (FLAG-TOR) (P42345 1360-2549 limits assumed): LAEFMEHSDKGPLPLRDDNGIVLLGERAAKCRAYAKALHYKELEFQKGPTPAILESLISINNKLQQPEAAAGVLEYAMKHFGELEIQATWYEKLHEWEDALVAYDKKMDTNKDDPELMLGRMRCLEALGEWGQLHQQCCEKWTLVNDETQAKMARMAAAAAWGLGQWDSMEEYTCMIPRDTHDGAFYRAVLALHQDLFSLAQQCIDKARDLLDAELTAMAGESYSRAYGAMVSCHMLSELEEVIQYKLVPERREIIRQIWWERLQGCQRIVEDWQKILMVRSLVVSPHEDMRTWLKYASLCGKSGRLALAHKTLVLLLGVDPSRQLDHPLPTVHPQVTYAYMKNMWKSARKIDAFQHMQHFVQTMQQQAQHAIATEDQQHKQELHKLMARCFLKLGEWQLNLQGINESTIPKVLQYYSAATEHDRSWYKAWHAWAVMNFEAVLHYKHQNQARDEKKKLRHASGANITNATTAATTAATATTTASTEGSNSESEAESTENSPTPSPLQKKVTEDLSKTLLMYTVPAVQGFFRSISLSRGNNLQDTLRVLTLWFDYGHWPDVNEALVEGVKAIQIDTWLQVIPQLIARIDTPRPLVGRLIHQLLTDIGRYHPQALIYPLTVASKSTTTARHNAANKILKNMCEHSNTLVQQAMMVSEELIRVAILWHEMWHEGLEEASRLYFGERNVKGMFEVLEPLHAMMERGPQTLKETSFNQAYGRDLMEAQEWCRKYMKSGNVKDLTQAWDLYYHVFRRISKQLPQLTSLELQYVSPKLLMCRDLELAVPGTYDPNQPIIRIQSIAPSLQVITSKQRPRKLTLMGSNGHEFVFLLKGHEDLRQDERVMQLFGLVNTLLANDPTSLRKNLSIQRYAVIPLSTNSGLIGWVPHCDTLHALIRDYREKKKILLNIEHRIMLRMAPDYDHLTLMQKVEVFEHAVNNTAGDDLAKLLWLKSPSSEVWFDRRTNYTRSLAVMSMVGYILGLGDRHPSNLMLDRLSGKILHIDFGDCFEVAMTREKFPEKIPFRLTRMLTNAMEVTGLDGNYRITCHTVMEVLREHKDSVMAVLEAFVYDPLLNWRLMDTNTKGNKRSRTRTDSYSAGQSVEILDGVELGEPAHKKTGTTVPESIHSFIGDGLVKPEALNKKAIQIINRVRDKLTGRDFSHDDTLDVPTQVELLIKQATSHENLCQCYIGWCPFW
Chain of PI3K-α (P42336 whole entry, species assumed): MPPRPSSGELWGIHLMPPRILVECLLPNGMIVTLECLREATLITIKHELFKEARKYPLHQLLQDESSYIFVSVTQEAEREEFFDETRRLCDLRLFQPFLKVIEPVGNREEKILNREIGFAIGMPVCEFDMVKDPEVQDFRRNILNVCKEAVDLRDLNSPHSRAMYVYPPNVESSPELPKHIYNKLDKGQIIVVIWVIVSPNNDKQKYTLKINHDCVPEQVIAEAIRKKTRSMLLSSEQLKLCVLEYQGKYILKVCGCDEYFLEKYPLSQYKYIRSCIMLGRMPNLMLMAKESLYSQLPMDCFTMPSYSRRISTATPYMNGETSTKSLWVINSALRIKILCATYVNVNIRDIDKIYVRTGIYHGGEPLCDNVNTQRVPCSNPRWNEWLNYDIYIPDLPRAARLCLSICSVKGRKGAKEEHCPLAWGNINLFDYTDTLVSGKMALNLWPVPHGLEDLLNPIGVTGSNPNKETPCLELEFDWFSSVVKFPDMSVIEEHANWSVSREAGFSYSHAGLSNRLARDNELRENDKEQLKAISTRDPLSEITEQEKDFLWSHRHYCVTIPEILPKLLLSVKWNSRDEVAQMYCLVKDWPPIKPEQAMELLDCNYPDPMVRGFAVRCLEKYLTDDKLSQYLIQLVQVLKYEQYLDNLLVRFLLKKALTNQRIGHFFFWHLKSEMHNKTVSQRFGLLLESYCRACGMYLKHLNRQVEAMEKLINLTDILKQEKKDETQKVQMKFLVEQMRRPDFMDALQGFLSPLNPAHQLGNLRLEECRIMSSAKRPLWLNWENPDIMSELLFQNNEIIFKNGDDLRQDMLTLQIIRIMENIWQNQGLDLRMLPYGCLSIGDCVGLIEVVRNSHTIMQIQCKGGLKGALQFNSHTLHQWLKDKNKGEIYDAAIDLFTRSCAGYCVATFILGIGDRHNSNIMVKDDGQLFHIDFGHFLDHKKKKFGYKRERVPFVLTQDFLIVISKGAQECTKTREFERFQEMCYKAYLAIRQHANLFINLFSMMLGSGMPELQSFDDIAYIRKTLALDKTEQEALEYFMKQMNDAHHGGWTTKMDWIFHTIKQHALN
Chain of PI3K-α (P27986 whole entry partner, species assumed): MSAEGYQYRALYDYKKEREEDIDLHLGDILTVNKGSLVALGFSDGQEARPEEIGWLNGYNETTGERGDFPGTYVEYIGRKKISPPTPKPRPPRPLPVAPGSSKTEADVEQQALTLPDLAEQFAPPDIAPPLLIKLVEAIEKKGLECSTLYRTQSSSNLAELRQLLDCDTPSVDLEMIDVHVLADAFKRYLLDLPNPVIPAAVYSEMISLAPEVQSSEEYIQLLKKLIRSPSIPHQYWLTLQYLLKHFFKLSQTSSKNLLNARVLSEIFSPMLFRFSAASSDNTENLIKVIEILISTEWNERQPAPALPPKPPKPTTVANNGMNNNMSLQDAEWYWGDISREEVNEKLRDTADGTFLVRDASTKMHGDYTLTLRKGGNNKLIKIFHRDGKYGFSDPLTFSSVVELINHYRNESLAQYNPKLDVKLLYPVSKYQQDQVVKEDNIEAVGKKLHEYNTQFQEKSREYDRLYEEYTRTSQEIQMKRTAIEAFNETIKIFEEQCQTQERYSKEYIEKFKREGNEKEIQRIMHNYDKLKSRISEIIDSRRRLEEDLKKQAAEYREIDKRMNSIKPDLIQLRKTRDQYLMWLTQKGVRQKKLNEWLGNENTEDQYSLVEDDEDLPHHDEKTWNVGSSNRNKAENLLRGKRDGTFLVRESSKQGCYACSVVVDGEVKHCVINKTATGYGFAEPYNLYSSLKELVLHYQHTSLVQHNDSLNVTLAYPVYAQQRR
Chain of PI3K-γ (P48736 whole entry, species assumed): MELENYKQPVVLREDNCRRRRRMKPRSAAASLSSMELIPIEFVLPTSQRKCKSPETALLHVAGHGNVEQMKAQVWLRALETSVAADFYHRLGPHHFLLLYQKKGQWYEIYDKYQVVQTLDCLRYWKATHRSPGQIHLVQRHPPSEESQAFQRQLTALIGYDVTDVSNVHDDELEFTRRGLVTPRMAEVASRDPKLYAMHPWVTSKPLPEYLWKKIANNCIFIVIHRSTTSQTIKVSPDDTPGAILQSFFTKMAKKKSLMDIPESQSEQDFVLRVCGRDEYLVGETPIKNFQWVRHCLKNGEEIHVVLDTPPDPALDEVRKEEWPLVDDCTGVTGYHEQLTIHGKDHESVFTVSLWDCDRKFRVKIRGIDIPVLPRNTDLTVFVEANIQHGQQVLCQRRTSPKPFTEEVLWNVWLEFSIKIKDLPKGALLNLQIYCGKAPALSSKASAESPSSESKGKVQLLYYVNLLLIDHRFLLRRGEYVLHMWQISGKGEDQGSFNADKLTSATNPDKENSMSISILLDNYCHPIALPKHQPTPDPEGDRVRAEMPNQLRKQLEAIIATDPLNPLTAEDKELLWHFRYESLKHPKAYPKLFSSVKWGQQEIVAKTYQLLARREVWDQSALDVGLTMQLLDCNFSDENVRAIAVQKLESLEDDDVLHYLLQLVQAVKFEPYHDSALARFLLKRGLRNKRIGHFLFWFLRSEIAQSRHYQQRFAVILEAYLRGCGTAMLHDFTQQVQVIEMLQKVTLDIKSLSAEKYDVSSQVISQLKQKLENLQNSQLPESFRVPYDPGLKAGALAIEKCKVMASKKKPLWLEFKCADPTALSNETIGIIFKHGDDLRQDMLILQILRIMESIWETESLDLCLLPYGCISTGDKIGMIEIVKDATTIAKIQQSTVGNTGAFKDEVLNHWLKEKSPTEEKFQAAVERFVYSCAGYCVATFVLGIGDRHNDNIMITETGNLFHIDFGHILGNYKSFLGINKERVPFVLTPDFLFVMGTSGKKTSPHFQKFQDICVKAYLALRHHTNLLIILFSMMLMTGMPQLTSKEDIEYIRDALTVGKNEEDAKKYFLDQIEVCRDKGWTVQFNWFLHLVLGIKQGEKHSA

Regarding `CN(C)CCN(C)C(=O)c1ccc(NC(=O)Nc2ccc(-c3nc(N4CCOCC4)nc(N4C5CCC4COC5)n3)cc2)cc1` [Example 698, N-[2-(dimethylamino)ethyl]-N-methyl-4-[({4-[4-morpholin-4-yl-6-(3-oxa-8-azabicyclo[3.2.1]oct-8-yl)-1,3,5-triazin-2-yl]phenyl}carbamoyl)amino]benzamide], the IC50 (as a rule, the midpoint of a concentration-inhibition curve) is 0.302 nM on Human mTOR (FLAG-TOR); 2.7 nM at PI3K-α; less than 3 nM in test [1] (72 h); 6 nM in test [2]; 44.7 nM at PI3K-γ.
The matching figures for `O=C(Nc1ccc(C(=O)NCCO)cc1)Nc1ccc(-c2nc(N3CCOCC3)nc(N3C4CCC3COC4)n2)cc1` [Example 699, N-(2-hydroxyethyl)-4-[({4-[4-morpholin-4-yl-6-(3-oxa-8-azabicyclo[3.2.1]oct-8-yl)-1,3,5-triazin-2-yl]phenyl}carbamoyl)amino]benzamide]: 0.3 nM, 5 nM, 36 nM, 40 nM and 62.5 nM.
The matching figures for `CN(C)CCCNC(=O)c1ccc(NC(=O)Nc2ccc(-c3nc(N4CCOCC4)nc(N4C5CCC4COC5)n3)cc2)cc1` [Example 700, N-[3-(dimethylamino)propyl]-4-[({4-[4-morpholin-4-yl-6-(3-oxa-8-azabicyclo[3.2.1]oct-8-yl)-1,3,5-triazin-2-yl]phenyl}carbamoyl)amino]benzamide]: 0.53 nM, 2.5 nM, 5 nM, 20 nM and 41.5 nM.
With `CNCCN(C)C(=O)c1ccc(NC(=O)Nc2ccc(-c3nc(N4CCOCC4)nc(N4C5CCC4COC5)n3)cc2)cc1` [Example 701, N-methyl-N-[2-(methylamino)ethyl]-4-[({4-[4-morpholin-4-yl-6-(3-oxa-8-azabicyclo[3.2.1]oct-8-yl)-1,3,5-triazin-2-yl]phenyl}carbamoyl)amino]benzamide], the IC50 at Human mTOR (FLAG-TOR) is 0.36 nM; on PI3K-α it was 2 nM; in test [1] (72 h), less than 30 nM; in test [2] it was less than 30 nM; at PI3K-γ, 25 nM.
Regarding `CC1CN(C(=O)c2ccc(NC(=O)Nc3ccc(-c4nc(N5CCOCC5)nc(N5C6CCC5COC6)n4)cc3)cc2)CC(C)N1` (stereo not shown) [Example 703, 1-{4-[(3,5-dimethylpiperazin-1-yl)carbonyl]phenyl}-3-{4-[4-morpholin-4-yl-6-(3-oxa-8-azabicyclo[3.2.1]oct-8-yl)-1,3,5-triazin-2-yl]phenyl}urea], the half-maximal inhibitory concentration (IC50) is 0.51 nM at Human mTOR (FLAG-TOR); 1.5 nM at PI3K-α; less than 3 nM in test [1] (MDA-MB-361, 72 h); 13 nM in test [2]; 23.5 nM on PI3K-γ.
With `O=C(Nc1ccc(-c2nc(N3CCOCC3)nc(N3C4CCC3COC4)n2)cc1)Nc1ccnc(Cl)c1` [Example 746, 1-(2-chloropyridin-4-yl)-3-{4-[4-morpholin-4-yl-6-(3-oxa-8-azabicyclo[3.2.1]oct-8-yl)-1,3,5-triazin-2-yl]phenyl}urea], the half-maximal inhibitory concentration (IC50) on Human mTOR (FLAG-TOR) was 1.27 nM; at PI3K-α it was 23.5 nM; in test [1] (72 h) it was 93 nM; in test [2] it was 118 nM; on PI3K-γ, 99 nM.
`O=C(Nc1ccc(-c2nc(N3CCOCC3)nc(N3C4CCC3COC4)n2)cc1)Nc1ccc(-c2nc(N3CCOCC3)nc(N3C4CCC3COC4)n2)cc1` [Example 751, 1,3-bis{4-[4-morpholin-4-yl-6-(3-oxa-8-azabicyclo[3.2.1]oct-8-yl)-1,3,5-triazin-2-yl]phenyl}urea]: the half-inhibitory concentration (IC50) on Human mTOR (FLAG-TOR) is 3 nM; at PI3K-α, 143 nM; in test [1] (MDA-MB-361, 72 h) it was 144 nM; in test [2] it was 238 nM; at PI3K-γ, 404 nM.
The matching figures for `CN(C)C1CCN(C(=O)c2ccc(NC(=O)Nc3ccc(-c4nc(N5CCOCC5)nc(N5C6CCC5COC6)n4)cc3)cc2)CC1` [Example 752, 1-(4-{[4-(dimethylamino)piperidin-1-yl]carbonyl}phenyl)-3-{4-[4-morpholin-4-yl-6-(3-oxa-8-azabicyclo[3.2.1]oct-8-yl)-1,3,5-triazin-2-yl]phenyl}urea]: 0.29 nM, 1.2 nM, less than 3 nM, 6 nM and 18.5 nM.
Take `CN1CCN(CCNC(=O)c2ccc(NC(=O)Nc3ccc(-c4nc(N5CCOCC5)nc(N5C6CCC5COC6)n4)cc3)cc2)CC1` [Example 753, N-[2-(4-methylpiperazin-1-yl)ethyl]-4-[({4-[4-morpholin-4-yl-6-(3-oxa-8-azabicyclo[3.2.1]oct-8-yl)-1,3,5-triazin-2-yl]phenyl}carbamoyl)amino]benzamide]: the concentration for half-maximal inhibition (IC50) turned out to be 0.315 nM at Human mTOR (FLAG-TOR); 2 nM at PI3K-α; 4 nM in test [1] (72 h); 14 nM in test [2]; 31 nM on PI3K-γ.
On to `CC(C)N1CCN(C(=O)c2ccc(NC(=O)Nc3ccc(-c4nc(N5CCOCC5)nc(N5C6CCC5COC6)n4)cc3)cc2)CC1` [Example 754, 1-{4-[(4-isopropylpiperazin-1-yl)carbonyl]phenyl}-3-{4-[4-morpholin-4-yl-6-(3-oxa-8-azabicyclo[3.2.1]oct-8-yl)-1,3,5-triazin-2-yl]phenyl}urea], for which the IC50 was 0.327 nM at Human mTOR (FLAG-TOR); 3 nM at PI3K-α; 31.3 nM in test [1] (MDA-MB-361, 72 h); 70.8 nM in test [2]; 28 nM on PI3K-γ.
In the same order, the values of `O=C(Nc1ccc(C(=O)N2CCN(C3CCCC3)CC2)cc1)Nc1ccc(-c2nc(N3CCOCC3)nc(N3C4CCC3COC4)n2)cc1` [Example 755, 1-{4-[(4-cyclopentylpiperazin-1-yl)carbonyl]phenyl}-3-{4-[4-morpholin-4-yl-6-(3-oxa-8-azabicyclo[3.2.1]oct-8-yl)-1,3,5-triazin-2-yl]phenyl}urea] are 0.57 nM, 2 nM, 3 nM, 13 nM and 26.5 nM.
In the case of `O=C(Nc1ccc(C(=O)N2CCNCC2)cc1)Nc1ccc(-c2nc(N3CCOCC3)nc(N3C4CCC3COC4)n2)cc1` [Example 756, 1-{4-[4-morpholin-4-yl-6-(3-oxa-8-azabicyclo[3.2.1]oct-8-yl)-1,3,5-triazin-2-yl]phenyl}-3-[4-(piperazin-1-ylcarbonyl)phenyl]urea], the half-inhibitory concentration (IC50) is 0.2 nM on Human mTOR (FLAG-TOR); 0.5 nM on PI3K-α; less than 3 nM in test [1] (MDA-MB-361, 72 h); 12 nM in test [2]; 7 nM on PI3K-γ.
The matching figures for `O=C(Nc1ccc(C(=O)N2CCC(N3CCOCC3)CC2)cc1)Nc1ccc(-c2nc(N3CCOCC3)nc(N3C4CCC3COC4)n2)cc1` [Example 757, 1-{4-[4-morpholin-4-yl-6-(3-oxa-8-azabicyclo[3.2.1]oct-8-yl)-1,3,5-triazin-2-yl]phenyl}-3-{4-[(4-morpholin-4-ylpiperidin-1-yl)carbonyl]phenyl}urea]: 0.28 nM, 5.5 nM, less than 3 nM, 6 nM and 37.5 nM.
Take `O=C(Nc1ccc(C(=O)NCCN2CCCC2)cc1)Nc1ccc(-c2nc(N3CCOCC3)nc(N3C4CCC3COC4)n2)cc1` [Example 758, 4-[({4-[4-morpholin-4-yl-6-(3-oxa-8-azabicyclo[3.2.1]oct-8-yl)-1,3,5-triazin-2-yl]phenyl}carbamoyl)amino]-N-(2-pyrrolidin-1-ylethyl)benzamide]: the IC50 amounted to 0.17 nM on Human mTOR (FLAG-TOR); 2 nM on PI3K-α; 3 nM in test [1] (72 h); 14 nM in test [2]; 16 nM at PI3K-γ.
The matching figures for `O=C(Nc1ccc(C(=O)NCCN2CCCCC2)cc1)Nc1ccc(-c2nc(N3CCOCC3)nc(N3C4CCC3COC4)n2)cc1` [Example 759, 4-[({4-[4-morpholin-4-yl-6-(3-oxa-8-azabicyclo[3.2.1]oct-8-yl)-1,3,5-triazin-2-yl]phenyl}carbamoyl)amino]-N-(2-piperidin-1-ylethyl)benzamide]: 0.16 nM, 2 nM, 1 nM, 10 nM and 38 nM.
Turning to `O=C(Nc1ccc(C(=O)N2CCC(N3CCCC3)CC2)cc1)Nc1ccc(-c2nc(N3CCOCC3)nc(N3C4CCC3COC4)n2)cc1` [Example 761, 1-{4-[4-morpholin-4-yl-6-(3-oxa-8-azabicyclo[3.2.1]oct-8-yl)-1,3,5-triazin-2-yl]phenyl}-3-{4-[(4-pyrrolidin-1-ylpiperidin-1-yl)carbonyl]phenyl}urea], the 50% inhibitory concentration (IC50) is 0.12 nM on Human mTOR (FLAG-TOR); 2 nM at PI3K-α; less than 3 nM in test [1] (MDA-MB-361, 72 h); 4 nM in test [2]; 19 nM at PI3K-γ.
Regarding `O=C(Nc1ccc(C(=O)N2CCSCC2)cc1)Nc1ccc(-c2nc(N3CCOCC3)nc(N3C4CCC3COC4)n2)cc1` [Example 762, 1-{4-[4-morpholin-4-yl-6-(3-oxa-8-azabicyclo[3.2.1]oct-8-yl)-1,3,5-triazin-2-yl]phenyl}-3-[4-(thiomorpholin-4-ylcarbonyl)phenyl]urea], the 50% inhibitory concentration (IC50) on Human mTOR (FLAG-TOR) was 0.428 nM; at PI3K-α, 2.7 nM; in test [1] (MDA-MB-361, 72 h), 8 nM; in test [2], 7 nM; at PI3K-γ, 19.7 nM.

Values taken from US20090304692A1, “TRIAZINE COMPOUNDS AS PI3 KINASE AND MTOR INHIBITORS” (Wyeth, priority 2008, published 2009).
